{
  "source": "patent US20100249175A1",
  "about": "“Dicationic compounds which selectively recognize G-quadruplex DNA” (priority 2005, published 2010)",
  "key": {"[1]": {"tested_on": "modified human telomere sequences", "assay": "CD titration with modified human telomere sequences", "assay_type": "binding", "settings": "50 mM KCl, 10 mM K2HPO4, 0.1 mM EDTA, pH 7.0", "source_text": "(§1) The oligonucleotides d[AG3(T2AG3)3] (SEQ ID NO: 1), d[AG3TG4AG3TG4A] (SEQ ID NO: 2), d[G4(T4G4)3] (SEQ ID NO: 3), d[(T2G4)4] (SEQ ID NO: 4), d[(GC)7] (SEQ ID NO: 5), d[[…]] (SEQ ID NO: 6), d[G2T2G2TGTG2T2G2] (SEQ ID NO: 7), d[[…]] (SEQ ID NO: 8), d[[…]] (SEQ ID NO: 9), d[[…]] (SEQ ID NO: 10), d[[…]] (SEQ ID NO: 11), d[TTAGGGT] (SEQ ID NO: 12), and d[TGGGGT] (SEQ ID NO: 13) were purchased with HPLC purification from Midland Certified Reagent Company (The Midland Certified Reagent Company, Inc., Midland, Tex., USA). The concentration of each DNA sample was determined spectrophotometrically at 260 nm using the nearest neighbor extinction coefficient.\n(§2) Stock solutions of individual dicationic polyaryl compounds were prepared in double distilled water and diluted to working concentrations immediately before use with buffer. […] Absorbance spectra were obtained on a Varian Cary 300 BIO UV-visible spectrophotometer (Varian, Inc., Palo Alto, Calif., United States of America) in a quartz cell with a 1 cm pathlength. CD spectra were recorded using a Jasco J-810 spectrapolarimeter (Jasco, Inc., Easton, Md., United States of America) in a 1-cm cell using an instrument scanning speed of 50 nm/min with a response time of 1 s. The spectra were averaged over four scans. A buffer baseline scan was collected in the same cuvette and subtracted from the average scan for each sample. […]"}, "[2]": {"tested_on": "d[TGGGGT] (SEQ ID NO: 13)", "assay": "CD titration with d[TGGGGT]", "assay_type": "binding", "settings": "50 mM KCl, 10 mM K2HPO4, 0.1 mM EDTA, pH 7.0", "source_text": "as §1, §2"}, "[3]": {"tested_on": "Tetrahymena telomere, d[(T2G4)4] (SEQ ID NO: 4)", "assay": "CD titration with Tetrahymena telomere", "assay_type": "binding", "settings": "HEPES buffer containing 50 mM KCl", "source_text": "as §1\nStock solutions of individual dicationic polyaryl compounds were prepared in double distilled water and diluted to working concentrations immediately before use with buffer. All measurements were performed at 20° C. in a 10 mM HEPES buffer (pH 7.4) containing 3 mM EDTA and 50 mM KCl, NaCl, or LiCl. Absorbance spectra were obtained on a Varian Cary 300 BIO UV-visible spectrophotometer (Varian, Inc., Palo Alto, Calif., United States of America) in a quartz cell with a 1 cm pathlength. CD spectra were recorded using a Jasco J-810 spectrapolarimeter (Jasco, Inc., Easton, Md., United States of America) in a 1-cm cell using an instrument scanning speed of 50 nm/min with a response time of 1 s. The spectra were averaged over four scans. […]"}, "[4]": {"tested_on": "STIB 900 strain of Trypanosoma brucei rhodesiense (T. b. r.)", "assay": "In vivo T. b. r. STIB 900 mouse model", "settings": "20 mg/kg ip", "description": "Groups of four mice were infected intraperitoneally with 2×10^5 bloodstream forms of T. b. r. STIB 900 which originates from a patient in Tanzania. On days 3, 4, 5, and 6 post-infection the experimental groups were treated with the drugs either by the intraperitoneal or for prodrugs by the oral route. Usually the highest tolerated dose was used which was determined in a pretoxicological experiment. Parasitemia of the mice was checked daily up to day 14 post-infection and thereafter 2 times per week up to day 60. One group of mice was not treated and acted as control. For relapsing mice, the day of death was recorded and the survival time determined."}},
  "data": [
    {"smiles": "N=C(N)c1ccc(-c2ccc(-c3ccc(C(=N)N)o3)o2)cc1", "note": "[Compound 8, 5′-(4-Amidinophenyl)-2,2′-bifuran-5-carboxamidine]", "values": [
      {"measurement": "exciton splitting in CD spectra (in words)", "setting": "[1]", "result": "exhibited exciton splitting"},
      {"measurement": "induced CD / exciton splitting (in words)", "setting": "[2]", "result": "does not show any induced CD or exciton splitting"},
      {"measurement": "exciton splitting in CD spectra (in words)", "setting": "[3]", "result": "exhibited exciton splitting"},
      {"measurement": "In Vivo T.b.r. cures", "setting": "[4]; mice cured / mice infected, days 3-6 post-infection", "result": "2/4"},
      {"measurement": "In Vivo T.b.r. survival time", "setting": "[4]; observation up to day 60", "result": "> 45.5", "unit": "days"}
    ]}
  ]
}
